Measurements published in US6630488B1, “Quinolizinones as integrin inhibitors” (Biochem Pharma, Inc., priority 1998, dated 2003).
Counter-ions that a name gives are not always drawn.

What was measured:
placental αvβ3 = molecular target: T1, placental αvβ3 (Homo sapiens, UniProt P05106+P06756); assay: Fibrinogen binding to immobilized αvβ3; conditions: biotinylated-fibrinogen 10 nM, immobilized placental αvβ3; read-out: IC50 values for the fibrinogen binding assay αvβ3
T1 construct: purified active GP IIb-IIIa (Calbiochem) or olacental αvβ3 at 0.5 μg/ml; from tissue; host or cells: placenta
T1 sequence (P06756 31-889 limits assumed): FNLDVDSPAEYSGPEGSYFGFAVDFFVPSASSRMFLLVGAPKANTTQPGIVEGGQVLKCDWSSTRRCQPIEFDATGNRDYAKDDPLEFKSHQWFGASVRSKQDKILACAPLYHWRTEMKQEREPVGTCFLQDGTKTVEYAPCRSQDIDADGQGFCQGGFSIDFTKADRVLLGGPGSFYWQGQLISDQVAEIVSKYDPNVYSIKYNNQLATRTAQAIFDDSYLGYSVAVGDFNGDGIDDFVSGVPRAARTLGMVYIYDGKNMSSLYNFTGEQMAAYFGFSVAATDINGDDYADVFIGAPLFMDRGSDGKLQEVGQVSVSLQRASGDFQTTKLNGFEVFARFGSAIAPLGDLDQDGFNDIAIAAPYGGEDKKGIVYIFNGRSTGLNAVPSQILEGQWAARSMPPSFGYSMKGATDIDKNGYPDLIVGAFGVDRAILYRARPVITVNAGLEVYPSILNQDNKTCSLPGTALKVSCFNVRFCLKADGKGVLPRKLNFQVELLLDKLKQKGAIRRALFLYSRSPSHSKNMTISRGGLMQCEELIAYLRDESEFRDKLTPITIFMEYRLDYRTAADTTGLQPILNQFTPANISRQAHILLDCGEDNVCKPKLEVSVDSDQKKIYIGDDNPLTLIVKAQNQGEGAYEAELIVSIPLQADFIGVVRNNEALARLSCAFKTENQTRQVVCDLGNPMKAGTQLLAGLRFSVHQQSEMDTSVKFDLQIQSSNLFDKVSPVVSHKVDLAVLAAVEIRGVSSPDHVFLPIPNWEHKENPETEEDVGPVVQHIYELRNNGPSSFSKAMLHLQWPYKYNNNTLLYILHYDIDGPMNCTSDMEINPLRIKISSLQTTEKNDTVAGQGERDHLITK
T1 sequence (P06756 891-1048 partner limits assumed): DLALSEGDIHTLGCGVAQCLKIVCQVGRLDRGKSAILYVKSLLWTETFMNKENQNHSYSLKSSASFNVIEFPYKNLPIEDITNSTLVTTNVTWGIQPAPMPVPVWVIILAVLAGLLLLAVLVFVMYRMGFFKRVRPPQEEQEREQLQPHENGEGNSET
T1 sequence (P05106 27-788): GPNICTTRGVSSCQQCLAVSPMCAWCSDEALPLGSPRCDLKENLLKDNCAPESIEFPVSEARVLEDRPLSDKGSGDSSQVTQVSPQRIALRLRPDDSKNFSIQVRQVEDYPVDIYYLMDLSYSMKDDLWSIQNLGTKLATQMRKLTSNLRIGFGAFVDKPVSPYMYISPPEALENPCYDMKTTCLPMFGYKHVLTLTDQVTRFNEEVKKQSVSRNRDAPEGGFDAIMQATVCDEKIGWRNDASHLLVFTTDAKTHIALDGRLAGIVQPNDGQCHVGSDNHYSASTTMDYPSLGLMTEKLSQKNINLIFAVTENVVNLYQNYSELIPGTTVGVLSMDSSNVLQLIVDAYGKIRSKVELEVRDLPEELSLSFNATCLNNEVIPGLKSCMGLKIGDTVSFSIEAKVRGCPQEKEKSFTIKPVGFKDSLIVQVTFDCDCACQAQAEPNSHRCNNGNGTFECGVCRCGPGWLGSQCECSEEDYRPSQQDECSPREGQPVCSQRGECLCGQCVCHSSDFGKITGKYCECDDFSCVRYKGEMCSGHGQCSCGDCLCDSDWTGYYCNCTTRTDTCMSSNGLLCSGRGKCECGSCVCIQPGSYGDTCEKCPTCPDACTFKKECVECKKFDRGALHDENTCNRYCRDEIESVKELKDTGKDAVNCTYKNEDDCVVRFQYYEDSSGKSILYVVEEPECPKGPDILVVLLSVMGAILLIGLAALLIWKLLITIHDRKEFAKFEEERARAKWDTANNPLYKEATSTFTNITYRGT
Procedure: (§1) Nonbound fibrinogen was removed by five washes with binding buffer. Avidin conjugated to alkaline phosphatase (Sigma), diluted in binding buffer, was added and incubated for two hours at 37° C. The plates were washed five times with binding buffer, and after addition of the substrate PNPP (Pierce), the enzyme activity was measured by the absorbance at 405 nm.

[1] = test system: Chick Chorioallantoic Membrane (CAM) capillary formation; assay: Chick chorioallantoic membrane (CAM) mesh assay; format: in vivo, chicken; conditions: Day 12, 24 hr treatment
Procedure: Fertilized white leghorn chicken eggs (SPAFAS Inc., Norwich, Conn.) were received at day 0 and incubated for 3 days at 37 C with constant humidity. On day 3, eggs were rinsed with 70% ethanol and opened into 100 mm^2 tissue culture coated Petri dishes under aseptic conditions. The embryos were then returned to a humidified 38 C incubator for 7-9 additional days.
Vitrogen (Collagen Biomaterials, Palo Alto, Calif.) at a final concentration of 0.73 mg/ml and Matrigel (Becton Dickinson, Bedford, Mass.) at a final concentration of 10 mg/ml was directly pipetted onto Nylon meshes with 250 μm^2 openings which were cut into 4 mm×4 mm squares and autoclaved. Polymerization of meshes were under aseptic conditions, on bacteriological Petri dishes. The polymerization conditions for each substrate were identical; after mixing with or without […] of VPF/VEGF165 (Peprotech, Rocky Hill, N.J.) and/or compounds of interest, 40 μl were pipetted onto each mesh in a bacteriological Petri dish.
The Petri dish was placed in a humidified 37 C incubator with 5% CO2 for 30 minutes to allow polymerization followed by an incubation at 4 C for 2 hours.
In a tissue culture enclosure, meshes were placed onto the periphery of the CAM of a day 12-14 embryo, excluding areas containing major vessels. The embryos were then returned to the humidified 38 C incubator with 3% CO2 for 24 to 48 additional hours.
Embryos were removed from the incubator and meshes were viewed under a dissecting microscope for gross evaluation. Injection of 400 μl FITC dextran, MW 2,000,000 (Sigma, St. Louis, Mo.) through glass microcapillary tubes by infusion into the umbilical vein was performed at a rate of 200 μl per minute. The FITC dextran was allowed to circulate for 5 minutes and 3.7% formaldehyde in PBS was applied directly on each mesh. The embryos were then incubated at 4 C for 5 minutes and the meshes were dissected off the CAM and fixed in 3.7% formaldehyde for 10 minutes to overnight.
After fixation, meshes were mounted on slides with 90% glycerol in PBS and visualized on an inverted fluorescence microscope. A Nikon Diaphot with a Sony DXC-151A camera attached to the side port was used for capture of images and analysis was with the NIH Image 1.61 software program. For each mesh, 5 random staggered images (approximately 600 μm each) were captured. The areas of high intensity were highlighted and measured. Results are expressed as ability to suppress capillary formation after subtraction from negative control. Values were calculated as i inhibition, considering 100% the capillary density achieved by VPF in the presence of vitrogen alone minus the background levels in the absence of VPF. Negative values indicate angiogenic stimulation above the VPF positive control.

GP IIb-IIIa (αIIbβ3) = molecular target: T2, GP IIb-IIIa (αIIbβ3) (Homo sapiens, UniProt P05106+P08514); assay: Fibrinogen binding to immobilized GP IIb-IIIa (αIIbβ3); conditions: biotinylated-fibrinogen 10 nM, immobilized GP IIb-IIIa; read-out: IC50 values for the fibrinogen binding assay αIIbβ3
T2 construct: purchased Calbiochem
T2 sequence (P08514 32-887 limits assumed): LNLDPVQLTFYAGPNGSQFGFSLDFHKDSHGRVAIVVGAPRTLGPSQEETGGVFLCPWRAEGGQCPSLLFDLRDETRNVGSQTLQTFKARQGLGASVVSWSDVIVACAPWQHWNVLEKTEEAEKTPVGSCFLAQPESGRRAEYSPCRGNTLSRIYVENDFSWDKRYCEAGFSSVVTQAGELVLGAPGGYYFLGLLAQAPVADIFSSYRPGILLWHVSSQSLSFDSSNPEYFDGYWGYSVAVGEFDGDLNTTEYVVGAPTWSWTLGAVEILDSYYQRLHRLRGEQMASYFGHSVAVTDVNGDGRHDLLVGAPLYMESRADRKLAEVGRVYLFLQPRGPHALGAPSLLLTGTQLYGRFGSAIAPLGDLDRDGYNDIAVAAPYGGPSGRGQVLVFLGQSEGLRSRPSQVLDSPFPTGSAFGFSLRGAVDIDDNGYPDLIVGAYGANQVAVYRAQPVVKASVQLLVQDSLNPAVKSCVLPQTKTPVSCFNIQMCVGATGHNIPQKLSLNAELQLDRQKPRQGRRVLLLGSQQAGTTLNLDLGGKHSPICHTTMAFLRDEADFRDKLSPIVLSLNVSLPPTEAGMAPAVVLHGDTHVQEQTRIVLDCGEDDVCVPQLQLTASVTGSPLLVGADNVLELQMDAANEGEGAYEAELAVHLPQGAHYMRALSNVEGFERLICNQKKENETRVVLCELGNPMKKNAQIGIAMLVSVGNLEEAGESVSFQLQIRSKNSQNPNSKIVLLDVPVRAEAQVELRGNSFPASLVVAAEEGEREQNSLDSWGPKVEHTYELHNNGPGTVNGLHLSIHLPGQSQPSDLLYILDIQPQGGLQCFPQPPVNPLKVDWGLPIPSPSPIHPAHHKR
T2 sequence (P08514 891-1039 partner limits assumed): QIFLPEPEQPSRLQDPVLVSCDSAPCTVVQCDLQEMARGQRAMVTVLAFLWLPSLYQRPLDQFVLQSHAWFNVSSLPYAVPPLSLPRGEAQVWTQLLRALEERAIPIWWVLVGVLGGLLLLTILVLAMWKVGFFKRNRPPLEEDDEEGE
T2 sequence (P05106 27-788): as the sequence (P05106 27-788) above
Procedure: as §1

| IC50 (placental αvβ3) [µM] | IC50 (GP IIb-IIIa (αIIbβ3)) [µM] | SMILES | further results |
| --- | --- | --- | --- |
| > 100 | 96 | NCCCOc1ccc2ccc(C(=O)N[C@H]3CCCC[C@@H]3C(=O)O)c(=O)n2c1.O=C(O)C(F)(F)F (racemic) [Compound V, (+/−)(trans)-2-{[7-(3-Amino-propoxy)-4-oxo-4H-quinolizine-3-carbonyl]-amino}-cyclohexanecarboxylic Acid Trifluoroacetic Acid Salt] | CAM inhibition of capillary formation ([1]; 3 μg/mesh, +VPF): 7%; CAM inhibition of capillary formation ([1]; 3 μg/mesh, −VPF): 1%; CAM inhibition of capillary formation ([1]; 17 μg/mesh, +VPF): 9%; CAM inhibition of capillary formation ([1]; 17 μg/mesh, −VPF): 8%; CAM inhibition of capillary formation ([1]; 33 μg/mesh, +VPF): 20%; CAM inhibition of capillary formation ([1]; 33 μg/mesh, −VPF): 15% |
| 1.9 |  | N=C(N)N1CCN(c2ccn3c(=O)c(C(=O)NC(CC(=O)O)c4ccccc4)ccc3c2)CC1.O=C(O)C(F)(F)F (racemic) [Compound XL, (+/−)-3-{[8-(4-Carbamimidoyl-piperazin-1-yl)-4-oxo-4H-quinolizine-3-carbonyl]-amino}-3-phenyl-propionic Acid Trifluoroacetic Acid Salt] | CAM inhibition of capillary formation ([1]; 3 μg/mesh, +VPF): −2%; CAM inhibition of capillary formation ([1]; 3 μg/mesh, −VPF): 4%; CAM inhibition of capillary formation ([1]; 17 μg/mesh, +VPF): 7%; CAM inhibition of capillary formation ([1]; 17 μg/mesh, −VPF): 10%; CAM inhibition of capillary formation ([1]; 33 μg/mesh, +VPF): 11%; CAM inhibition of capillary formation ([1]; 33 μg/mesh, −VPF): 9% |
| 0.0049 | 2.6 | N=C(N)NCc1ccc2cc(C(=O)NC[C@H](NC(=O)OCc3ccccc3)C(=O)O)cc(=O)n2c1 [Compound XLVIII, (S)-2-Benzyloxycarbonylamino-3-[(7-guanidinomethyl-4-oxo-4H-quinolizine-2-carbonyl)-amino]-propionic acid trifluoroacetic acid salt] |  |
| 96 | 0.52 | NCCCOc1ccc2ccc(C(=O)NC[C@H](NS(=O)(=O)c3ccccc3)C(=O)O)c(=O)n2c1 [Compound III, (S)-3-{[7-(3-Amino-propoxy)-4-oxo-4H-quinolizine-3-carbonyl]-amino}-2-benzenesulfonylamino-propionic Acid Trifluoroacetic Acid Salt] |  |
| 0.019 | 0.44 | NCc1ccc2cc(C(=O)NC[C@H](NS(=O)(=O)c3ccccc3)C(=O)O)cc(=O)n2c1 (stereo in doubt) [Compound XXVI, 3-[(7-Aminomethyl-4-oxo-4H-quinolizine-2-carbonyl)-amino]-2-benzenesulfonylamino-propionic Acid Trifluoroacetic Acid Salt] |  |
| 21 | 0.063 | CN(CCN(C)c1ccn2c(=O)c(C(=O)NC(CC(=O)O)c3ccccc3)ccc2c1)C(=N)N (racemic) [Compound XXXIX, (+/−)-3-[(8-{Methyl-[2-(N-methyl-guanidino)-ethyl]-amino}-4-oxo-4H-quinolizine-3-carbonyl)-amino]-3-phenyl-propionic Acid Trifluoroacetic Acid Salt] |  |
| > 100 | 1.5 | NCCCOc1ccc2cc(C(=O)NCCC(=O)O)cc(=O)n2c1 [Compound XVI, 3-{[7-(3-Amino-propoxy)-4-oxo-4H-quinolizine-2-carbonyl]-amino}-propionic Acid Trifluoroacetic Acid Salt] |  |
| 58 | 1.3 | CN([C@@H](CNC(=O)c1cc(=O)n2cc(OCCCNC(=N)N)ccc2c1)C(=O)O)S(=O)(=O)c1ccccc1 [Compound XXIV, (S)-2-(Benzenesulfonyl-methyl-amino)-3-{[7-(3-guanidino-propoxy)-4-oxo-4H-quinolizine-2-carbonyl]-amino}-propionic Acid Hydrochloride] |  |
| 2 | 0.029 | NCCOc1ccc2cc(C(=O)NC[C@H](NS(=O)(=O)c3ccccc3)C(=O)O)cc(=O)n2c1 [Compound XIX, (S)-3-{[7-(2-Amino-ethoxy)-4-oxo-4H-quinolizine-2-carbonyl]-amino}-2-benzenesulfonylamino-propionic Acid Trifluoroacetic Acid Salt] |  |
| 0.72 | 14.8 | N=C(N)NCc1ccc2cc(C(=O)NC(CC(=O)O)c3cccnc3)cc(=O)n2c1 (racemic) [Compound XLIII, (+/−)-3-[(7-guanidinomethyl-4-oxo-4H-quinolizine-2-carbonyl]-amino)-3-pyridin-3-yl-propionic acid bis-trifluoroacetic acid salt] |  |
| > 100 | 0.82 | CN([C@@H](CNC(=O)c1cc(=O)n2cc(OCCCN)ccc2c1)C(=O)O)S(=O)(=O)c1ccccc1 [Compound XXIII, (S)-3-{[7-(3-Amino-propoxy)-4-oxo-4H-quinolizine-2-carbonyl]-amino}-2-(benzenesulfonyl-methyl-amino)-propionic Acid Trifluoroacetic Acid Salt] |  |
| 1.1 | 0.79 | CNC(=O)NCCCOc1ccc2cc(C(=O)NC[C@H](NS(=O)(=O)c3ccccc3)C(=O)O)cc(=O)n2c1 [Compound XII, (S)-2-Benzenesulfonylamino-3-({7-[3-(3-methyl-ureido)-propoxy]-4-oxo-4H-quinolizine-2-carbonyl}-amino)-propionic Acid] |  |
| 0.29 | 3.5 | O=C(NC[C@H](NS(=O)(=O)c1ccccc1)C(=O)O)c1cc(=O)n2cc(CNc3ncccn3)ccc2c1 [Compound XLVI, (S)-2-Benzenesulfonylamino-3-([4-oxo-7-(pyrimidin-2-ylaminomethyl)-4H-quinolizine-2-carbonyl]-amino)-propionic acid trifluoroacetic acid salt] |  |
| 0.03 | 6 | N=C(N)NCc1ccc2cc(C(=O)NCC(Nc3ncccn3)C(=O)O)cc(=O)n2c1 (racemic) [Compound XLIV, (+/−)-3-[(7-guanidinomethyl-4-oxo-4H-quinolizine-2-carbonyl)-amino]-2-(pyrimidin-2-ylamino)-propionic acid bis-trifluoroacetic acid salt] |  |
| 15 | 1.25 | O=C(NC[C@H](NS(=O)(=O)c1ccccc1)C(=O)O)c1cc(=O)n2cc(OCCCNc3ncccn3)ccc2c1 [Compound XXV, (S)-2-Benzenesulfonylamino-3-({4-oxo-7-[3-(pyrimidin-2-ylamino)-propoxy]-4H-quinolizine-2-carbonyl}-amino)-propionic Acid] |  |

| SMILES | IC50 (placental αvβ3) [µM] | IC50 (GP IIb-IIIa (αIIbβ3)) [µM] | further results |
| --- | --- | --- | --- |
| NCCCCOc1ccc2cc(C(=O)NC[C@H](NS(=O)(=O)c3ccccc3)C(=O)O)cc(=O)n2c1 [Compound XVII, (S)-3-{[7-(4-Amino-butoxy)-4-oxo-4H-quinolizine-2-carbonyl]-amino}-2-benzenesulfonylamino-propionic Acid Trifluoroacetic Acid Salt] | 5.1 | 0.00017 |  |
| N=C(N)NCCCCOc1ccc2cc(C(=O)NC[C@H](NS(=O)(=O)c3ccccc3)C(=O)O)cc(=O)n2c1 [Compound XVIII, (S)-2-Benzenesulfonylamino-3-{[7-(4-guanidino-butoxy)-4-oxo-4H-quinolizine-2-carbonyl]-amino}-propionic Acid Hydrochloride] | 2.2 | 0.0053 |  |
